target: ClpP1P2 (Mycobacterium tuberculosis (strain ATCC 25618 / H37Rv), UniProt P9WPC3+P9WPC5); test: in vitro assay to detect presence of AMC directly proportional to the activity of ClpP1P2. GHDDI collaboration.; type: functional
Sequence (P9WPC5 whole entry): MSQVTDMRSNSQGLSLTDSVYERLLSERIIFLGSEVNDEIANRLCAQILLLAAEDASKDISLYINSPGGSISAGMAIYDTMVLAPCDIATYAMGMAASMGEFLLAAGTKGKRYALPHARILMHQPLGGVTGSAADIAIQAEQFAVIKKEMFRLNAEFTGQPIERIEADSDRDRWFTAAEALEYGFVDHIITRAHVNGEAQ
Sequence (P9WPC3 whole entry): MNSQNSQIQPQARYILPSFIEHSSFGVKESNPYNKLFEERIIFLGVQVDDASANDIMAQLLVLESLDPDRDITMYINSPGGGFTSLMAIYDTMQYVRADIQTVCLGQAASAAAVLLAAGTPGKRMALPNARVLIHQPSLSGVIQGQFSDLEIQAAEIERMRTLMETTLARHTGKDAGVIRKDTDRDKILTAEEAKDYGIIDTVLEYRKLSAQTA

Structure (SMILES)	IC50 [µM]
CNc1cncc(C2CCCN2C(=O)CCn2ccnc2C(C)C)n1 (stereo unspecified)	> 100
CNC(=O)c1cc2c(nc1NC(C)C)CCN(C(=O)NC(C)C)CC2	> 100
O=C1CC(Nc2ccc3nccnc3n2)CN1c1ccccc1 (stereo unspecified)	> 100
Cc1nc(-c2nc(C(=O)N(C)C)c3ccccn23)cn1C(C)C	> 100
CNc1cncc(C2CCCN2C(=O)Cn2ccnc2C)n1 (stereo unspecified)	> 100
c1ccc2nc(N3CCCC3c3nnc4n3CCCCC4)cnc2c1 (stereo unspecified)	> 100
CC(c1ccco1)N(C)Cc1cc2cc3c(cc2[nH]c1=O)OCO3 (stereo unspecified)	> 100
CCNc1cc2c(nn1)CCN(C(=O)c1ccoc1)C2	> 100
Cn1ccc2c(-c3nccc(N)n3)ccnc21	> 100
CCN(CC)C(=O)CCNc1cncc(-n2nc(C)cc2C)n1	> 100
COCC(C)N1CCc2onc(-c3ccc(C(F)(F)F)cc3)c2C1 (stereo unspecified)	> 100
Cc1cccc(CNc2cncc(-n3cccn3)n2)c1	> 100
Cn1cc(-c2ncc3c(c2C(=O)O)CCN(Cc2ccccn2)C3)cn1	> 100
CC(C)c1nnc(NC(=O)CN2C(=O)c3ccccc3NC2C(C)C)s1 (stereo unspecified)	> 100
CCC(=O)NC1CCCN(c2cncc(OCc3ccccc3)n2)C1 (stereo unspecified)	> 100
CCOc1ccc2[nH]c(=O)c(CN3CCC(n4cnnc4)CC3)cc2c1	> 100
Cc1c(-c2cccs2)nn2c(O)c3c(nc12)CN(C(=O)C1CC1)C3	> 100
Cc1nc(C(=O)N(CC(=O)N(C)C)CC(F)(F)F)c2ccccn12	> 100
CC1CN(CC(=O)NCc2ccccn2)CCN1Cc1nccn1C (stereo unspecified)	> 100
CCCOc1ccc(CNc2cncc(-n3cccn3)n2)cc1	> 100
Cc1cn2c(=O)c(-c3ccnc(N[C@@H](C)CO)n3)cnc2s1	> 100
CN(C)c1nc2sc(C(=O)N3CCNC(=O)CC3)cc2s1	> 100

Structure (SMILES)	IC50 [µM]
CC(C)SCCNC(=O)c1cccc2ccnn12	> 100
COCC(=O)N1CCC(c2cc3nc(C)cc(C(F)(F)F)n3n2)CC1	> 100
c1cnc2nc(N3CCCC3c3nnc4n3CCCCC4)ccc2n1 (stereo unspecified)	> 100
Cc1nnc(C2Cc3ccccc3CN2Cc2c(C)noc2C)o1 (stereo unspecified)	> 100
COc1cccc(-c2cc(NCCN(C)C)nc3[nH]ccc23)n1	> 100
Cc1cccc2nc(CN3CCCC3Cn3cccn3)cn12 (stereo unspecified)	> 100
CN(C)C(=O)N1CCN(C(=O)c2ccn3cncc3c2)CC1	> 100
Cc1ccc2nc(CNc3ccccc3C(=O)NC3CC3)cn2c1	> 100
CNC(=O)c1cc2c(nc1NCC1CC1)CCN(c1ccncn1)CC2	> 100
CCCC(C)NC(=O)c1ccc(-c2ccco2)[nH]c1=O (stereo unspecified)	> 100
CC(=O)Nc1ccc2nc(CN(C)Cc3noc(C)n3)ccc2c1	> 100
CC(C)Cc1cc(-c2cc(-c3ccc[nH]3)nc(N)c2C#N)n[nH]1	> 100
CN1CCC(NC(=O)c2cc(Br)cc(Cl)c2O)C1=O (stereo unspecified)	> 100
COCCN1CCC(CNc2cnc3ccccc3n2)CC1	> 100
Cc1cc(C)n(-c2ccc3nnc(C)n3n2)n1	> 100
Cc1cnn(CC2CN(Cc3nc(C)c4ccccc4n3)CCO2)c1 (stereo unspecified)	> 100
CC(C)n1c2ccccc2c2c1cc(C(=O)NC1CC1)n2C(=O)N(C)C	> 100
CN(Cc1ccsc1)C(=O)Nc1ccc(N2CCCC2)nc1	> 100
CC(C)c1nnc(CNC2CCCN(Cc3noc(C4CC4)n3)C2)o1 (stereo unspecified)	> 100
c1ccc(CCCN2CCCC(Nc3cnc4ccccc4n3)C2)cc1 (stereo unspecified)	> 100
Cc1nc(C2CCCN2CC(=O)Nc2c(C)n[nH]c2C)no1 (stereo unspecified)	> 100
Cc1csc2ncc(-c3ccnc(N4CCCN(C)CC4)n3)c(=O)n12	> 100

Structure (SMILES)	IC50 [µM]
Cc1nc(-c2cc(C(=O)NCCN3CCOCC3)c3ccccn23)cs1	> 100
Cc1nc(CN2CCOC(Cn3cccn3)C2)nc2ccccc12 (stereo unspecified)	> 100
N#Cc1cccnc1N1CCC(C2CCCCCN2C(N)=O)CC1 (stereo unspecified)	> 100
c1ccc2nc(N3CCOC(Cn4cncn4)C3)cnc2c1 (stereo unspecified)	> 100
CCOc1ccc2[nH]c(=O)c(CN3CCC(O)CC3)cc2c1	> 100
O=C(c1c2c(NCC3CC3)ncnc2n2ccccc12)N1CCOCC1	> 100
Cc1ccc2cc(CN(C)Cc3ccncn3)c(=O)[nH]c2c1	> 100
COCCN1CCc2cc(C(=O)NC(C)C)c(NCC(C)C)nc2CC1	> 100
Nc1nccc(-c2cccc3ccnn23)n1	> 100
CC(COCC(F)(F)F)NC(=O)c1ccc(-c2ccco2)[nH]c1=O (stereo unspecified)	> 100
CCN(CC)C(=O)c1ccc(CNc2cncc(-n3cccn3)n2)cc1	> 100
O=C1C[C@H]2CC[C@@H](CN1)N2c1cc(-c2ccccc2F)nc2ccnn12	> 100
Cc1cc(CN2CCN(C(=O)c3sccc3C3CC3)CC2)no1	> 100
c1ccc2nc(N3CCOC(Cn4cccn4)C3)cnc2c1 (stereo unspecified)	> 100
CN(CCN1CCCCC1=O)Cc1cc2cc3c(cc2[nH]c1=O)OCO3	> 100
CCOC(=O)CN1CCC2(CC1)CC(=O)c1ccc3ccccc3c1O2	> 100
O=C(O)C1(O)CCN(c2ccc3cccc(Cl)c3n2)CC1	> 100
CCc1ncc2c(n1)CN(CC(=O)Nc1nncs1)CC2	> 100
COc1ccc2c(c1)C(=O)N(C)C1(CCN(CC3CC3)CC1)N2	> 100
CCN(CC)c1ccc(NS(=O)(=O)c2cnn(C(C)C)c2)cn1	> 100
CC(C)Nc1nc2c(c(NC3CC3)n1)CN(C(=O)c1ccsc1)CC2	> 100
CN(C)CC1CN(c2cnc3ccccc3n2)CCO1 (stereo unspecified)	> 100

Structure (SMILES)	IC50 [µM]
CCOC1CCN(C(=O)CN(C)c2cnccn2)CC1	> 100
Cc1ncsc1CCC(=O)NC1CCN(c2ncccc2C#N)CC1	> 100
CC/N=c1\nc(NCC)nc2n1C(O)(Nc1cc(Cl)ccc1Cl)CS2 (stereo unspecified)	> 100
CN(C)C(=O)CN1C[C@@H]2CC[C@H](C1)N(Cc1ccc(Cl)cc1Cl)C2	> 100
Cc1n[nH]c(=O)c2c(NC(=O)CN3CCC(O)CC3)oc(C)c12	> 100
Cc1ccc(NC2CCN(C(=O)c3ccoc3C)CC2)nn1	> 100
Cn1ncc2c1CCCN(C(=O)C1CCCC1)C2	> 100
O=S1(=O)CCC(CNc2cc(-c3ccccc3)nc3ccnn23)C1 (stereo unspecified)	> 100
O=C1CCCN1Cc1nnc2n1CCCN(C(=O)c1ccco1)C2	> 100
CSc1ccc(CNc2n[nH]c(C)n2)cc1	> 100
O=C(NCC1CCCOC1)c1ccc(-c2cccs2)[nH]c1=O (stereo unspecified)	> 100
COc1ncc(NCc2ccsc2)cc1C(N)=O	> 100
CN(C(=O)CCc1nc(C2CC2)no1)c1cc(C#N)c2ccccc2n1	> 100
CN(C)c1ncc(-c2cc(C(=O)NC(C)(C)CO)n(CC3CC3)c2)cn1	> 100
Cc1c[nH]nc1C1CCCN1Cc1ncc[nH]1 (stereo unspecified)	> 100
Cn1c(Cn2ccnc2)nnc1C1CCN(C(=O)c2cccnc2)CC1	> 100
CCCNC(=O)c1ccc(-c2ccco2)[nH]c1=O	> 100
CN1CCCN(C(=O)c2cc(-c3cc[nH]n3)n3ccccc23)CC1	> 100
COCCN1CCc2cc(C(=O)NC(C)C)c(NCC3CC3)nc2CC1	> 100
Cc1ccc2[nH]c(=O)cc(C(=O)N[C@@H]3C[C@@H](CO)N(C)C3)c2c1	> 100
CCN1CCCC1CNCc1cc2cc3c(cc2[nH]c1=O)OCCO3 (stereo unspecified)	> 100
CS(=O)(=O)CC1(CNc2cc(C#N)c3cc(Cl)ccc3n2)CC1	> 100

Structure (SMILES)	IC50 [µM]
CCCn1[nH]cc/c1=N\C(=O)CN1CCn2c(nnc2C2CC2)C1	> 100
COc1ccc2c(c1OC)Cc1c-2nc(N)c(C#N)c1C1CCOC1 (stereo unspecified)	> 100
CCOC(=O)C1(Cc2ccc(Cl)cc2)CCN(Cc2ncc[nH]2)CC1	> 100
CC(Cn1cccn1)NC(=O)NCc1ccoc1 (stereo unspecified)	> 100
O=C(CCc1ccc(-c2ccccc2)[nH]1)N1CCCC(n2ccnc2)C1 (stereo unspecified)	> 100
CC(C)n1c2ccccc2c2c1cc(C(=O)NCCO)n2C(=O)N(C)C	> 100
COc1cccc(-n2nnc(C(=O)N3CCN(C)CC3C)c2C)c1 (stereo unspecified)	> 100
CCOCc1ccc(CNc2cncc(-n3cccn3)n2)cc1	> 100
CC(=O)N1CCCCCC1C1CCN(c2ncccc2C#N)CC1 (stereo unspecified)	> 100
COc1ccccc1-c1nc(C(=O)N2CCOCC2)n2ccncc12	> 100
CCN1CCc2c(sc3c2C(=O)NC(/C=C\c2ccccc2)N3)C1 (stereo unspecified)	> 100
Cc1n[nH]c(C)c1-c1cc(-c2cc[nH]c2)nc(N)c1C#N	> 100
O=C(c1c2c(N3CCCC3)ncnc2n2ccccc12)N1CCCC1	> 100
COc1ccc2nc(O)c(CN(C)Cc3ncc[nH]3)cc2c1	> 100
CCOC(=O)CN(CC(F)(F)F)C(=O)c1nc(C)n2ccccc12	> 100
O=C(Cn1cccc2cc(-c3ccc(F)cc3)nc1-2)N1CCC(O)CC1	> 100
COc1ccccc1Cc1cncc(N2CC(C(=O)O)C2)n1	> 100
NC(=O)CC1CCCN(c2cncc(OCc3ccccc3)n2)C1 (stereo unspecified)	> 100

From ChEMBL document CHEMBL3988442, “University of Dundee, Small-Polar-MMV Screening Library” (2021)
